“And” between values parts separate entries of the source, which are not always exact repeats. Identical values can stand only once. Bridge positions count the residues as written; N and C are the ends. Peptide text beside a SMILES is read from it.
Test system: calcium concentration in the serum
Experiment: Test 1: reduction of calcium level in serum after tail vein administration to rats
Type: in vivo, rats of the Wistar strain
Settings: 1 ml/kg tail vein, female Wistar rats
Experimental: Six-weeks-old female rats of the Wistar strain (each group consisting of 4 rats) were used as the test animal, and the peptides of the present invention obtained in the examples given hereinafter were tested at concentrations adjusted with a 1% aqueous solution of sodium acetate (pH 4,0) to which 0.1% bovine serum albumin (BSA) was added. The solution was adjusted to a concentration of 166 μg/ml 830 ng/ml or 83 ng/ml and administered with the tail vein in an amount of 1 ml/kg. The back of the rat was fixed and blood was collected just before the administration, and at predetermined intervals after the administration, from the neck vein. The amount of blood collected each time was 0.3 ml. The sampled blood was subjected to centrifugal separation at 3500 rpm for 20 minutes to separate serum and the calcium content in the separated serum was measured by TBA-380 (supplied by Toshiba) using a Wako calcium-measuring kit (o-cpc method), and the ratio of reduction of the calcium concentration in the serum was determined.

[1] = concentration 830 ng/ml, 0 hour (just before administration)
[2] = concentration 830 ng/ml, 1 hour
[3] = concentration 830 ng/ml, 2 hours
[4] = concentration 830 ng/ml, 4 hours
[5] = concentration 830 ng/ml, 6 hours

| Compound | Serum calcium level as percent of pre-dose baseline (concentration 83 ng/ml, 0 hour (just before administration)) [%] | Serum calcium level as percent of pre-dose baseline (concentration 83 ng/ml, 1 hour) [%] | Serum calcium level as percent of pre-dose baseline (concentration 83 ng/ml, 2 hours) [%] | Serum calcium level as percent of pre-dose baseline (concentration 83 ng/ml, 4 hours) [%] | Serum calcium level as percent of pre-dose baseline (concentration 83 ng/ml, 6 hours) [%] | Serum calcium level as percent of pre-dose baseline [1] [%] | Serum calcium level as percent of pre-dose baseline [2] | Serum calcium level as percent of pre-dose baseline [3] | Serum calcium level as percent of pre-dose baseline [4] | Serum calcium level as percent of pre-dose baseline [5] |
| --- | --- | --- | --- | --- | --- | --- | --- | --- | --- | --- |
| CC[C@H](C)[C@H](NC(=O)[C@H](C)NC(=O)[C@@H](NC(=O)[C@H](CCC(N)=O)NC(=O)[C@@H]1CCCN1C(=O)[C@H](Cc1ccc(O)cc1)NC(=O)[C@@H](NC(=O)[C@H](CCC(N)=O)NC(=O)[C@H](CC(C)C)NC(=O)[C@H](CCCCN)NC(=O)[C@H](Cc1c[nH]cn1)NC(=O)[C@H](CC(C)C)NC(=O)[C@H](CCC(=O)O)NC(=O)[C@H](CCC(N)=O)NC(=O)[C@H](CO)NC(=O)[C@H](CC(C)C)NC(=O)[C@H](CCCCN)NC(=O)CNC(=O)[C@H](CC(C)C)NC(=O)[C@H](CCSC)NC(=O)[C@@H]1CSSC[C@H](N)C(=O)NCC(=O)N[C@@H](CC(N)=O)C(=O)N[C@@H](CC(C)C)C(=O)N[C@@H](CO)C(=O)N[C@@H]([C@@H](C)O)C(=O)N1)[C@@H](C)O)[C@@H](C)O)C(=O)NCC(=O)N[C@H](C(=O)NCC(=O)N[C@@H](C)C(=O)N1CCC[C@H]1C(N)=O)C(C)C [Peptide No. 1] (H-CGNLSTCMLGKLSQELHKLQTYPQTAIGVGAP-NH2; disulfide 1-7) | 100.0 | 74.3 | 81.1 | 86.9 | 83.5 | 100.0 | 85.6% and 74.3% and 70.2% | 81.6% and 68.4% and 64.4% | 76.8% and 68.0% and 60.6% | 88.5% and 84.8% and 78.3% |
| CC[C@H](C)[C@H](NC(=O)[C@H](C)NC(=O)[C@@H](NC(=O)[C@H](CCC(N)=O)NC(=O)[C@@H]1CCCN1C(=O)[C@H](Cc1ccc(O)cc1)NC(=O)[C@@H](NC(=O)[C@H](CCC(N)=O)NC(=O)[C@H](CCCCN)NC(=O)[C@H](Cc1c[nH]cn1)NC(=O)[C@H](CC(C)C)NC(=O)[C@H](CCC(=O)O)NC(=O)[C@H](CCC(N)=O)NC(=O)[C@H](CO)NC(=O)[C@H](CC(C)C)NC(=O)[C@H](CCCCN)NC(=O)CNC(=O)[C@H](CC(C)C)NC(=O)[C@H](CCSC)NC(=O)[C@@H]1CSSC[C@H](N)C(=O)NCC(=O)N[C@@H](CC(N)=O)C(=O)N[C@@H](CC(C)C)C(=O)N[C@@H](CO)C(=O)N[C@@H]([C@@H](C)O)C(=O)N1)[C@@H](C)O)[C@@H](C)O)C(=O)NCC(=O)N[C@H](C(=O)NCC(=O)N[C@@H](C)C(=O)N1CCC[C@H]1C(N)=O)C(C)C [Peptide No. 2] (H-CGNLSTCMLGKLSQELHKQTYPQTAIGVGAP-NH2; disulfide 1-7) | – | – | – | – | – | 100.0 | 86.7% | 87.7% | 92.8% | 90.1% |
| CC[C@H](C)[C@H](NC(=O)[C@H](C)NC(=O)[C@@H](NC(=O)[C@H](CCC(N)=O)NC(=O)[C@@H]1CCCN1C(=O)[C@H](Cc1ccc(O)cc1)NC(=O)[C@H](CC(C)C)NC(=O)[C@H](CCCCN)NC(=O)[C@H](Cc1c[nH]cn1)NC(=O)[C@H](CC(C)C)NC(=O)[C@H](CCC(=O)O)NC(=O)[C@H](CCC(N)=O)NC(=O)[C@H](CO)NC(=O)[C@H](CC(C)C)NC(=O)[C@H](CCCCN)NC(=O)CNC(=O)[C@H](CC(C)C)NC(=O)[C@H](CCSC)NC(=O)[C@@H]1CSSC[C@H](N)C(=O)NCC(=O)N[C@@H](CC(N)=O)C(=O)N[C@@H](CC(C)C)C(=O)N[C@@H](CO)C(=O)N[C@@H]([C@@H](C)O)C(=O)N1)[C@@H](C)O)C(=O)NCC(=O)N[C@H](C(=O)NCC(=O)N[C@@H](C)C(=O)N1CCC[C@H]1C(N)=O)C(C)C [Peptide No. 3] (H-CGNLSTCMLGKLSQELHKLYPQTAIGVGAP-NH2; disulfide 1-7) | – | – | – | – | – | 100.0 | 97.0% | 94.9% | 86.4% | 89.9% |
| CC[C@H](C)[C@H](NC(=O)[C@H](C)NC(=O)[C@@H](NC(=O)[C@H](CCC(N)=O)NC(=O)[C@@H]1CCCN1C(=O)[C@H](Cc1ccc(O)cc1)NC(=O)[C@@H](NC(=O)[C@H](CCC(N)=O)NC(=O)CNC(=O)[C@H](CCCCN)NC(=O)[C@H](Cc1c[nH]cn1)NC(=O)[C@H](CC(C)C)NC(=O)[C@H](CCC(=O)O)NC(=O)[C@H](CCC(N)=O)NC(=O)[C@H](CO)NC(=O)[C@H](CC(C)C)NC(=O)[C@H](CCCCN)NC(=O)CNC(=O)[C@H](CC(C)C)NC(=O)[C@H](CCSC)NC(=O)[C@@H]1CSSC[C@H](N)C(=O)NCC(=O)N[C@@H](CC(N)=O)C(=O)N[C@@H](CC(C)C)C(=O)N[C@@H](CO)C(=O)N[C@@H]([C@@H](C)O)C(=O)N1)[C@@H](C)O)[C@@H](C)O)C(=O)NCC(=O)N[C@H](C(=O)NCC(=O)N[C@@H](C)C(=O)N1CCC[C@H]1C(N)=O)C(C)C [Peptide No. 4] (H-CGNLSTCMLGKLSQELHKGQTYPQTAIGVGAP-NH2; disulfide 1-7) | – | – | – | – | – | 100.0 | 90.5% | 92.0% | 95.5% | 86.7% |
| CC[C@H](C)[C@H](NC(=O)[C@H](C)NC(=O)[C@@H](NC(=O)[C@H](CCC(N)=O)NC(=O)[C@@H]1CCCN1C(=O)[C@H](Cc1ccc(O)cc1)NC(=O)[C@@H](NC(=O)[C@H](CCC(N)=O)NC(=O)[C@H](CC(C)C)NC(=O)[C@H](CCCCN)NC(=O)[C@H](Cc1c[nH]cn1)NC(=O)[C@H](CC(C)C)NC(=O)[C@H](CCC(=O)O)NC(=O)[C@H](CCC(N)=O)NC(=O)[C@H](CO)NC(=O)[C@H](CC(C)C)NC(=O)[C@H](CCCCN)NC(=O)CNC(=O)[C@H](CC(C)C)NC(=O)[C@H](CCSC)NC(=O)[C@@H]1CSSC[C@H](N)C(=O)NCC(=O)N[C@@H](CC(N)=O)C(=O)N[C@@H](CC(C)C)C(=O)N[C@@H](CO)C(=O)N[C@@H]([C@@H](C)O)C(=O)N1)[C@@H](C)O)[C@@H](C)O)C(=O)NCC(=O)N[C@@H](CO)C(=O)NCC(=O)N[C@H](C(=O)N1CCC[C@H]1C(N)=O)[C@@H](C)O [Peptide No. 5] (H-CGNLSTCMLGKLSQELHKLQTYPQTAIGSGTP-NH2; disulfide 1-7) | – | – | – | – | – | 100.0 | 76.4% | 74.2% | 70.7% | 76.4% |
| CC[C@H](C)[C@H](NC(=O)[C@H](C)NC(=O)[C@@H](NC(=O)[C@H](CCC(N)=O)NC(=O)[C@@H]1CCCN1C(=O)[C@H](Cc1ccc(O)cc1)NC(=O)[C@@H](NC(=O)[C@H](CCC(N)=O)NC(=O)[C@H](CCCCN)NC(=O)[C@H](Cc1c[nH]cn1)NC(=O)[C@H](CC(C)C)NC(=O)[C@H](CCC(=O)O)NC(=O)[C@H](CCC(N)=O)NC(=O)[C@H](CO)NC(=O)[C@H](CC(C)C)NC(=O)[C@H](CCCCN)NC(=O)CNC(=O)[C@H](CC(C)C)NC(=O)[C@H](CCSC)NC(=O)[C@@H]1CSSC[C@H](N)C(=O)NCC(=O)N[C@@H](CC(N)=O)C(=O)N[C@@H](CC(C)C)C(=O)N[C@@H](CO)C(=O)N[C@@H]([C@@H](C)O)C(=O)N1)[C@@H](C)O)[C@@H](C)O)C(=O)NCC(=O)N[C@@H](CO)C(=O)NCC(=O)N[C@H](C(=O)N1CCC[C@H]1C(N)=O)[C@@H](C)O [Peptide No. 6] (H-CGNLSTCMLGKLSQELHKQTYPQTAIGSGTP-NH2; disulfide 1-7) | – | – | – | – | – | 100.0 | 73.1% | 68.1% | 74.6% | 92.1% |
| CC[C@H](C)[C@H](NC(=O)[C@H](C)NC(=O)[C@@H](NC(=O)[C@H](CCC(N)=O)NC(=O)[C@@H]1CCCN1C(=O)[C@H](Cc1ccc(O)cc1)NC(=O)[C@H](CC(C)C)NC(=O)[C@H](CCCCN)NC(=O)[C@H](Cc1c[nH]cn1)NC(=O)[C@H](CC(C)C)NC(=O)[C@H](CCC(=O)O)NC(=O)[C@H](CCC(N)=O)NC(=O)[C@H](CO)NC(=O)[C@H](CC(C)C)NC(=O)[C@H](CCCCN)NC(=O)CNC(=O)[C@H](CC(C)C)NC(=O)[C@H](CCSC)NC(=O)[C@@H]1CSSC[C@H](N)C(=O)NCC(=O)N[C@@H](CC(N)=O)C(=O)N[C@@H](CC(C)C)C(=O)N[C@@H](CO)C(=O)N[C@@H]([C@@H](C)O)C(=O)N1)[C@@H](C)O)C(=O)NCC(=O)N[C@@H](CO)C(=O)NCC(=O)N[C@H](C(=O)N1CCC[C@H]1C(N)=O)[C@@H](C)O [Peptide No. 7] (H-CGNLSTCMLGKLSQELHKLYPQTAIGSGTP-NH2; disulfide 1-7) | – | – | – | – | – | 100.0 | 81.9% | 91.7% | 97.4% | 100.0% |

— patent US6127519A, “Calcitonin derivatives” (Tsumura & Co., priority 1990, dated 2000)
